In PubChem BioAssay (NCI):
Several values for one entry are separate records, joined by “and”; a condition that tells them apart may be missing. Equal entries are not always repeated.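 In this assay, cells in 96-well plates receive the compound at five concentrations for 48 hours. Endpoints are linearly interpolated between the surrounding concentrations. TGI: total growth inhibition.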

Assays:
Test in all cases: DTP human tumour cell line panel, 48 h
HL-60(TB) leukemia = tested on: HL-60(TB) leukemia
HCC-2998 colon = tested on: HCC-2998 colon
CCRF-CEM leukemia = tested on: CCRF-CEM leukemia
OVCAR-5 ovarian = tested on: OVCAR-5 ovarian
SF-295 CNS = tested on: SF-295 CNS
HT29 colon = tested on: HT29 colon
UACC-62 melanoma = tested on: UACC-62 melanoma
HOP-92 NSCLC = tested on: HOP-92 NSCLC
HOP-18 NSCLC = tested on: HOP-18 NSCLC
DLD-1 colon = tested on: DLD-1 colon
DMS 273 small cell lung = tested on: DMS 273 small cell lung
KM20L2 colon = tested on: KM20L2 colon
SNB-78 CNS = tested on: SNB-78 CNS

## CO/N=C(\C)c1cccc(Nc2nc3ccccc3c3occc23)c1
HL-60(TB) leukemia
  TGI: 59.5 µM
HCC-2998 colon
  TGI: 28.8 µM
CCRF-CEM leukemia
  TGI: 37.7 µM
OVCAR-5 ovarian
  TGI: 27.6 µM
SF-295 CNS
  TGI: 25.9 µM
HT29 colon
  TGI: 17.6 µM
UACC-62 melanoma
  TGI: 2.18 µM
HOP-92 NSCLC
  TGI: 20.3 µM

## Nc1nc(OCC2CCCCC2)c2[nH]cnc2n1
HL-60(TB) leukemia
  TGI: 59.8 µM
HCC-2998 colon
  TGI: > 67.8 µM
CCRF-CEM leukemia
  TGI: 43.6 µM
OVCAR-5 ovarian
  TGI: 53.1 µM
SF-295 CNS
  TGI: > 75.6 µM
HT29 colon
  TGI: 48.5 µM
UACC-62 melanoma
  TGI: > 74.6 µM
HOP-92 NSCLC
  TGI: 42.7 µM

## O=C(NC(Cc1ccc(I)cc1)C(=O)O)c1ccc(Cl)cc1 (stereo not given)
HL-60(TB) leukemia
  TGI: > 100 µM
HOP-18 NSCLC
  TGI: > 100 µM
HCC-2998 colon
  TGI: > 100 µM
CCRF-CEM leukemia
  TGI: > 100 µM
OVCAR-5 ovarian
  TGI: > 100 µM
SF-295 CNS
  TGI: > 100 µM
HT29 colon
  TGI: > 100 µM
UACC-62 melanoma
  TGI: > 100 µM
DLD-1 colon
  TGI: > 100 µM
DMS 273 small cell lung
  TGI: > 100 µM
KM20L2 colon
  TGI: > 100 µM
HOP-92 NSCLC
  TGI: > 100 µM
SNB-78 CNS
  TGI: > 100 µM

## CCSc1nc(-c2cccs2)nc2ccc(I)cc12
HL-60(TB) leukemia
  TGI: > 100 µM
HCC-2998 colon
  TGI: > 100 µM
CCRF-CEM leukemia
  TGI: > 100 µM
OVCAR-5 ovarian
  TGI: > 100 µM
SF-295 CNS
  TGI: > 100 µM
HT29 colon
  TGI: > 100 µM
UACC-62 melanoma
  TGI: > 100 µM

## CC1CC(Br)C(=O)O1 (stereo not given)
HL-60(TB) leukemia
  TGI: > 100 µM
HCC-2998 colon
  TGI: > 100 µM
CCRF-CEM leukemia
  TGI: > 100 µM
OVCAR-5 ovarian
  TGI: > 100 µM
SF-295 CNS
  TGI: > 100 µM
HT29 colon
  TGI: > 100 µM
UACC-62 melanoma
  TGI: > 100 µM
HOP-92 NSCLC
  TGI: > 100 µM

## NCCNCCNc1ccc(NCCNCCN)c2c1C(=O)c1c(O)ccc(O)c1C2=O
HCC-2998 colon
  TGI: > 100 µM
CCRF-CEM leukemia
  TGI: > 100 µM
OVCAR-5 ovarian
  TGI: > 100 µM
SF-295 CNS
  TGI: > 100 µM
HT29 colon
  TGI: > 100 µM
UACC-62 melanoma
  TGI: > 100 µM
HOP-92 NSCLC
  TGI: > 100 µM

## c1ccc([P+](c2ccccc2)(c2ccccc2)c2ccc(-c3ccc([P+](c4ccccc4)(c4ccccc4)c4ccccc4)cc3)cc2)cc1
HL-60(TB) leukemia
  TGI: > 100 µM
HCC-2998 colon
  TGI: > 100 µM
CCRF-CEM leukemia
  TGI: > 100 µM
OVCAR-5 ovarian
  TGI: > 100 µM
SF-295 CNS
  TGI: 76.9 µM
HT29 colon
  TGI: 63.5 µM
UACC-62 melanoma
  TGI: > 100 µM

## Cc1c2cc[n+](C)cc2c(C)c2c1oc1ccccc12
HL-60(TB) leukemia
  TGI: > 73.2 µM
HOP-18 NSCLC
  TGI: > 63.7 µM
HCC-2998 colon
  TGI: 12.3 µM
CCRF-CEM leukemia
  TGI: 45.9 µM
OVCAR-5 ovarian
  TGI: 64 µM
SF-295 CNS
  TGI: 12.2 µM
HT29 colon
  TGI: > 77.1 µM
UACC-62 melanoma
  TGI: 16.5 µM
DLD-1 colon
  TGI: > 59.5 µM
DMS 273 small cell lung
  TGI: 16.7 µM
KM20L2 colon
  TGI: > 64.1 µM
HOP-92 NSCLC
  TGI: 32.7 µM
SNB-78 CNS
  TGI: 29.6 µM

## O=C1OC2(OC2c2ccc(Cl)cc2)c2ccccc21 (stereo not given)
HL-60(TB) leukemia
  TGI: > 100 µM
HCC-2998 colon
  TGI: > 100 µM
CCRF-CEM leukemia
  TGI: > 100 µM
OVCAR-5 ovarian
  TGI: > 100 µM
SF-295 CNS
  TGI: > 100 µM
HT29 colon
  TGI: > 100 µM
UACC-62 melanoma
  TGI: > 100 µM
DLD-1 colon
  TGI: > 100 µM
DMS 273 small cell lung
  TGI: > 100 µM
KM20L2 colon
  TGI: > 100 µM
HOP-92 NSCLC
  TGI: > 100 µM

## CN(C)CCCN1c2ccc([N+](=O)[O-])cc2CCc2cc([N+](=O)[O-])ccc21
HL-60(TB) leukemia
  TGI: 31 µM and 30.1 µM
HCC-2998 colon
  TGI: 21.9 µM and 24.7 µM
CCRF-CEM leukemia
  TGI: 28.4 µM
OVCAR-5 ovarian
  TGI: 28.6 µM and 28 µM
SF-295 CNS
  TGI: 29.4 µM and 29.8 µM
HT29 colon
  TGI: 30.8 µM and 27.7 µM
UACC-62 melanoma
  TGI: 26.3 µM and 28.2 µM
HOP-92 NSCLC
  TGI: 20 µM and 18 µM

## COc1ccc2c(c1)/C(=C\c1c(Cl)n(-c3ccccc3)c3ccccc13)C(=O)N2
HL-60(TB) leukemia
  TGI: 10.7 µM
HCC-2998 colon
  TGI: 22.2 µM
CCRF-CEM leukemia
  TGI: 55.8 µM
OVCAR-5 ovarian
  TGI: 50 µM
SF-295 CNS
  TGI: 25.9 µM
HT29 colon
  TGI: 14.2 µM
UACC-62 melanoma
  TGI: 32.6 µM
HOP-92 NSCLC
  TGI: 17.6 µM

## CCOC(=O)Nc1cc2c(c(N)n1)N=C(c1ccc3ccccc3c1)CN2
HL-60(TB) leukemia
  TGI: > 100 µM
HCC-2998 colon
  TGI: 1.47 µM
CCRF-CEM leukemia
  TGI: 0.0944 µM
OVCAR-5 ovarian
  TGI: > 56.8 µM
HT29 colon
  TGI: 1.5 µM
UACC-62 melanoma
  TGI: 30.9 µM
HOP-92 NSCLC
  TGI: 6.16 µM

## C[N+](C)(C)CCN[N+]1(C)CCCc2ccccc21 (stereo not given)
HL-60(TB) leukemia
  TGI: > 100 µM
HCC-2998 colon
  TGI: > 100 µM
OVCAR-5 ovarian
  TGI: > 100 µM
SF-295 CNS
  TGI: > 100 µM
HT29 colon
  TGI: > 100 µM
UACC-62 melanoma
  TGI: > 100 µM
HOP-92 NSCLC
  TGI: > 100 µM

## COc1cc([N+](=O)[O-])ccc1NC(=O)c1cccc([N+](=O)[O-])c1O
HL-60(TB) leukemia
  TGI: 55.4 µM
HOP-18 NSCLC
  TGI: 61 µM
HCC-2998 colon
  TGI: > 100 µM
CCRF-CEM leukemia
  TGI: > 100 µM
OVCAR-5 ovarian
  TGI: > 100 µM
SF-295 CNS
  TGI: 81.6 µM
HT29 colon
  TGI: > 100 µM
UACC-62 melanoma
  TGI: > 100 µM
DLD-1 colon
  TGI: > 100 µM
KM20L2 colon
  TGI: > 100 µM
SNB-78 CNS
  TGI: > 100 µM

## CC1(C=O)CCC23COC4(CCC5C6(C)CCC(OC7OCC(OC8OC(CO)C(O)C(OC9OC(CO)C(O)C(O)C9O)C8OC8OCC(O)C(O)C8O)C(O)C7OC7OC(CO)C(O)C(O)C7O)C(C)(C)C6CCC5(C)C4(C)CC2O)C3C1 (stereo not given)
HL-60(TB) leukemia
  TGI: 1.41 µM
HCC-2998 colon
  TGI: 2.17 µM
CCRF-CEM leukemia
  TGI: 0.789 µM
OVCAR-5 ovarian
  TGI: 2.55 µM
SF-295 CNS
  TGI: 2.23 µM
HT29 colon
  TGI: 2.07 µM
UACC-62 melanoma
  TGI: 3.17 µM
HOP-92 NSCLC
  TGI: 1.53 µM

## CS(=O)(=O)OCCN(CCOS(C)(=O)=O)c1ccc(/C=N/Nc2ncnc3nc[nH]c23)cc1
HL-60(TB) leukemia
  TGI: 27.1 µM
HOP-18 NSCLC
  TGI: 70.7 µM
HCC-2998 colon
  TGI: 39.5 µM
CCRF-CEM leukemia
  TGI: > 100 µM
OVCAR-5 ovarian
  TGI: 51.4 µM
SF-295 CNS
  TGI: 46.6 µM
HT29 colon
  TGI: 65.9 µM
UACC-62 melanoma
  TGI: 27.8 µM
DLD-1 colon
  TGI: 74.9 µM
DMS 273 small cell lung
  TGI: 35.4 µM
KM20L2 colon
  TGI: 58 µM
HOP-92 NSCLC
  TGI: 63.5 µM
SNB-78 CNS
  TGI: 75.5 µM

## Cc1ccc([N+](=O)[O-])cc1S(=O)(=O)Nc1ccc(C2=NOC(c3ccccc3O)C2)cc1 (stereo not given)
HL-60(TB) leukemia
  TGI: 21.4 µM
HCC-2998 colon
  TGI: 24.8 µM
CCRF-CEM leukemia
  TGI: > 100 µM
OVCAR-5 ovarian
  TGI: > 100 µM
SF-295 CNS
  TGI: > 100 µM
HT29 colon
  TGI: 30.8 µM
UACC-62 melanoma
  TGI: 98.9 µM
HOP-92 NSCLC
  TGI: > 100 µM

## O=c1c2cc(S(=O)(=O)O)ccc2nc(COc2ccc(Oc3ccc(Cl)cc3Cl)cc2)n1C(=S)Nc1ccc(Cl)cc1
HL-60(TB) leukemia
  TGI: 4.07 µM
CCRF-CEM leukemia
  TGI: > 100 µM
OVCAR-5 ovarian
  TGI: 40.7 µM
SF-295 CNS
  TGI: 39.6 µM
HT29 colon
  TGI: 36.4 µM
UACC-62 melanoma
  TGI: 31 µM
HOP-92 NSCLC
  TGI: 43.3 µM

## O=C1CSC(c2ccccc2O)N1c1nc2cc3sc(N4C(=O)CSC4c4ccccc4O)nc3cc2s1 (stereo not given)
HL-60(TB) leukemia
  TGI: > 100 µM
HCC-2998 colon
  TGI: > 100 µM
CCRF-CEM leukemia
  TGI: > 100 µM
OVCAR-5 ovarian
  TGI: > 100 µM
SF-295 CNS
  TGI: > 100 µM
HT29 colon
  TGI: > 100 µM
UACC-62 melanoma
  TGI: > 100 µM
HOP-92 NSCLC
  TGI: > 100 µM

## N=C(N)SCc1cccc([N+](=O)[O-])c1
HL-60(TB) leukemia
  TGI: 43.6 µM
HOP-18 NSCLC
  TGI: 89.1 µM
HCC-2998 colon
  TGI: > 100 µM
CCRF-CEM leukemia
  TGI: > 85.9 µM
OVCAR-5 ovarian
  TGI: > 100 µM
SF-295 CNS
  TGI: > 100 µM
HT29 colon
  TGI: 85.1 µM
UACC-62 melanoma
  TGI: > 100 µM
DLD-1 colon
  TGI: 97.6 µM
DMS 273 small cell lung
  TGI: > 100 µM
KM20L2 colon
  TGI: > 90.6 µM
HOP-92 NSCLC
  TGI: 60.9 µM
SNB-78 CNS
  TGI: > 100 µM
